Assay results: patent US20140186302A1, “Nutritional Formulations and Method for Treating Diseases” (priority 2012, published 2014)

Tests used:
retinal lesions [1] = test: Retinal lesion size by retinal photography in subjects having vitreomacular traction (VMT); type: in vivo, human
Source text: As used herein, the terms “units of diameter” and units made in reference to lesion size or diameter refer to units of diameter of the posterior pole of an eye, which measures ten units in diameter between the vascular arcades. A lesion can be larger than 19 units.
Diagnosis of vitreomacular traction (VMT): VMT can be symptomatic or asymptomatic. Complaints of reduced or distorted vision may or may not be reported by the subject. Measurement of visual acuity (VA) may or may not be normal or reduced in one or both eyes. Measurement for distortion on an Amsler grid may or may not show distortion in one or both eyes. Retinal photography may show signs of VMT in the original color composite image (e.g., upper left photo in four panel photo of FIG. 1A). Further analysis of the choroid (e.g., upper right photo in four panel photo of FIG. 1A), the retina (e.g., lower left photo in four panel photo of FIG. 1A), and the retinal nerve fibre layer (RNFL) (e.g., lower right photo in four panel photo of FIG. 1A), may reveal puckering, fibrosis, lamellar splitting, partial lamellar holes, pseudo macular holes, bulging and/or edema in the choroid, retinal and/or RNFL images. Further analysis with “3-D” images of the choroid, retina and RNFL layers may show elevations diagnostic of VMT, such as, for example, the presence, severity and/or size of puckering, partial lamellar holes, macular holes, bulging or edema. Further, “3-D” images can be useful for determining which layers of the eye tissue are affected by VMT.
Ocular imaging: retinal photographs were taken using a Canon CR-1 Digital Retinal Camera and analyzed using EyeScape Digital Imaging Software, version 7.5.5.
The settings used for taking retinal photographs were such that optimal contrast and brightness for each subject was achieved. Most retinal photographs were taken with a dilated pupil. Some subjects have naturally very large pupils. In these cases, pupil dilation may not have been required to obtain sufficient images. The Canon CR-1 has a setting for small pupils that was used as required.
Data were collected from 40 subjects having symptomatic VMT over a period of 4.5 years.
Subjects were treated daily with lutein and zeaxanthin as described in table 1.

retinal lesions [2] = test: as above; type: in vivo, human; conditions: Case 1, lutein (10 mg) every other day, four months
[3] = Lutein 5 mg, zeaxanthin 0 mg, case 31
[4] = Lutein 18 mg, zeaxanthin 0 mg, case 13
[5] = Lutein 20 mg, zeaxanthin 0 mg, case 2
[6] = Lutein 0 mg, zeaxanthin 1 mg, case 27

Row | Structure (SMILES) | OD lesion (units) (retinal lesions [1]; [3]) | OS lesion (units) (retinal lesions [1]; [3]) | OD lesion (units) (retinal lesions [1]; [4]) | OS lesion (units) (retinal lesions [1]; [4]) | OD lesion (units) (retinal lesions [1]; [5]) | OS lesion (units) (retinal lesions [1]; [5]) | ERM OD size after treatment (retinal lesions [2]; from 1.5 units) | OS macular pucker size after treatment (retinal lesions [2]; from 6.5 units) | OD lesion (units) (retinal lesions [1]; [6]) | OS lesion (units) (retinal lesions [1]; [6])
1 | CC1=C[C@H](O)CC(C)(C)[C@H]1/C=C/C(C)=C/C=C/C(C)=C/C=C/C=C(C)/C=C/C=C(C)/C=C/C1=C(C)C[C@@H](O)CC1(C)C [lutein] | 0 units | 0.5 units | 0 units | 0 units | 0 units | 3 units | 0.5 units | 5.0 units | – | –
2 | CC1=C(/C=C/C(C)=C/C=C/C(C)=C/C=C/C=C(C)/C=C/C=C(C)/C=C/C2=C(C)C[C@@H](O)CC2(C)C)C(C)(C)C[C@H](O)C1 [zeaxanthin] | – | – | – | – | – | – | – | – | 0.5 units | 0.5 units
